Source: PMC11200585, “Prospects for Prostate Cancer Chemotherapy: Cytotoxic Evaluation and Mechanistic Insights of Quinolinequinones with ADME/PK Profile” (Biomedicines, 2024)

Columns and labels:
Type in all cases: cell-based, human
DU-145 = experiment: NCI-60 one-dose screen (prostate cancer); conditions: 10 µM single dose, 48 h
Experimental: (§1) The obtained quinolinequinones were submitted to NCI, Bethesda, USA, and, as per standard protocol of NCI, all compounds were evaluated for their antiproliferative activity at single-dose assay (10 µM concentration in DMSO) on a panel of 60 cancer cell lines derived from leukemia, non-small-cell lung, colon, CNS, melanoma, ovarian, renal, prostate, and breast, as per protocol. Tested compounds were added to the microtiter culture plates followed by incubation for 48 h at 37 °C. Sulforhodamine B (SRB), a protein-binding dye, is used for endpoint determination. The percent of the growth of the treated cells was determined in comparison to the untreated control cells and the results of each tested compound were reported. Data from one-dose experiments pertain to the percentage growth at 10 μM [16, 17, 18].

PC-3 = experiment: NCI-60 one-dose screen (prostate cancer); conditions: 10 µM single dose
Experimental: as §1

CCRF-CEM = experiment: NCI-60 five-dose assay (leukemia); conditions: 48 h, SRB
K-562 = experiment: NCI-60 five-dose assay (leukemia); conditions: SRB
MOLT-4 = experiment: NCI-60 five-dose assay (leukemia); conditions: 48 h, SRB
RPMI-8226 = experiment: NCI-60 five-dose assay (leukemia); conditions: 48 h, SRB
SR = experiment: NCI-60 five-dose assay (leukemia); conditions: 48 h, SRB
A549/ATCC = experiment: NCI-60 five-dose assay (non-small cell lung cancer); conditions: 48 h, SRB
HOP-62 = experiment: as above; conditions: 48 h, SRB
HOP-92 = experiment: as above; conditions: 48 h, SRB
NCI-H226 = experiment: as above; conditions: 48 h, SRB
NCI-H460 = experiment: as above; conditions: 48 h, SRB
HCT-116 = experiment: NCI-60 five-dose assay (colon cancer); conditions: 48 h, SRB
HCT-15 = experiment: NCI-60 five-dose assay (colon cancer); conditions: 48 h, SRB
HT29 = experiment: NCI-60 five-dose assay (colon cancer); conditions: SRB
KM12 = experiment: NCI-60 five-dose assay (colon cancer); conditions: 48 h, SRB
SW-620 = experiment: NCI-60 five-dose assay (colon cancer); conditions: 48 h, SRB
SF-268 = experiment: NCI-60 five-dose assay (CNS cancer); conditions: 48 h, SRB
SF-295 = experiment: NCI-60 five-dose assay (CNS cancer); conditions: 48 h, SRB
SNB-19 = experiment: NCI-60 five-dose assay (CNS cancer); conditions: 48 h, SRB
LOX IMVI = experiment: NCI-60 five-dose assay (melanoma); conditions: 48 h, SRB
MALME-3M = experiment: NCI-60 five-dose assay (melanoma); conditions: 48 h, SRB
SK-MEL-2 = experiment: NCI-60 five-dose assay (melanoma); conditions: 48 h, SRB
SK-MEL-5 = experiment: NCI-60 five-dose assay (melanoma); conditions: 48 h, SRB
IGROV1 = experiment: NCI-60 five-dose assay (ovarian cancer); conditions: SRB
SK-OV-3 = experiment: NCI-60 five-dose assay (ovarian cancer); conditions: 48 h, SRB
A498 = experiment: NCI-60 five-dose assay (renal cancer); conditions: 48 h, SRB
ACHN = experiment: NCI-60 five-dose assay (renal cancer); conditions: 48 h, SRB
CAKI-1 = experiment: NCI-60 five-dose assay (renal cancer); conditions: 48 h, SRB
MDA-MB-231/ATCC = experiment: NCI-60 five-dose assay (breast cancer); conditions: 48 h, SRB
HS 578T = experiment: NCI-60 five-dose assay (breast cancer); conditions: 48 h, SRB
T-47D = experiment: NCI-60 five-dose assay (breast cancer); conditions: Homo sapiens, T47D, 48 h, SRB
[1] = Homo sapiens, read-out: LC50 (the source's name)

## COc1ccccc1NC1=C(Cl)C(=O)c2nc(C)ccc2C1=O [AQQ1]
DU-145
  GP (growth percentage): −57.26%
PC-3; 48 h
  GP (growth percentage): 27.39%
PC-3; Homo sapiens
  inhibition at 10 µM: 72.6%
CCRF-CEM
  TGI: 8.21 µM
CCRF-CEM; Homo sapiens
  GI50: 1.94 µM
  LC50 (concentration killing 50% of cells): > 100 µM
K-562; 48 h
  TGI: 2.94 µM
K-562; Homo sapiens, K562, 48 h
  GI50: 0.29 µM
  LC50: > 100 µM
MOLT-4
  TGI: 8.60 µM
MOLT-4; Homo sapiens
  GI50: 2.27 µM
  LC50: > 100 µM
RPMI-8226
  TGI: 4.61 µM
RPMI-8226; Homo sapiens
  GI50: 1.57 µM
RPMI-8226; [1]
  CC50: > 100 µM
SR
  TGI: 4.25 µM
SR; Homo sapiens
  GI50: 0.794 µM
SR; [1]
  CC50: > 100 µM
A549/ATCC
  TGI: 6.24 µM
A549/ATCC; Homo sapiens
  GI50: 2.44 µM
A549/ATCC; [1]
  CC50: 45.2 µM
HOP-62
  TGI: 6.98 µM
HOP-62; Homo sapiens
  GI50: 2.41 µM
  LC50 (concentration killing 50% of cells): 37.5 µM
HOP-92
  TGI: 3.30 µM
HOP-92; Homo sapiens
  GI50: 1.85 µM
  LC50 (50% lethal concentration): 5.91 µM
NCI-H226
  TGI: 4.52 µM
NCI-H226; Homo sapiens
  GI50: 1.93 µM
  LC50: 14.1 µM
NCI-H460
  TGI: 12 µM
NCI-H460; Homo sapiens
  GI50: 3.22 µM
NCI-H460; [1]
  CC50: 52.7 µM
HCT-116
  TGI: 4.16 µM
HCT-116; Homo sapiens
  GI50: 1.53 µM
  LC50: 44.3 µM
HCT-15
  TGI: 3.02 µM
HCT-15; Homo sapiens
  GI50: 1.33 µM
HCT-15; [1]
  CC50: 6.83 µM
HT29; 48 h
  TGI: 4.49 µM
HT29; Homo sapiens, HT-29, 48 h
  GI50: 2.13 µM
  LC50 (concentration killing 50% of cells): 9.46 µM
KM12
  TGI: 3.08 µM
KM12; Homo sapiens
  GI50: 1.49 µM
KM12; [1]
  CC50: 6.4 µM
SW-620
  TGI: 3.73 µM
SW-620; Homo sapiens
  GI50: 1.84 µM
  LC50: 7.56 µM
SF-268
  TGI: 3.05 µM
SF-268; Homo sapiens
  GI50: 1.53 µM
  LC50 (concentration killing 50% of cells): 6.06 µM
SF-295
  TGI: 3.42 µM
SF-295; Homo sapiens
  GI50: 1.85 µM
  LC50 (50% lethal concentration): 6.32 µM
SNB-19
  TGI: 3.72 µM
SNB-19; Homo sapiens
  GI50: 1.81 µM
SNB-19; [1]
  CC50: 7.64 µM
LOX IMVI
  TGI: 2.36 µM
LOX IMVI; Homo sapiens
  GI50: 0.952 µM
  LC50 (concentration killing 50% of cells): 5.7 µM
MALME-3M
  TGI: 3.19 µM
MALME-3M; Homo sapiens
  GI50: 1.71 µM
  LC50: 5.95 µM
SK-MEL-2
  TGI: 3.34 µM
SK-MEL-2; Homo sapiens
  GI50: 1.81 µM
SK-MEL-2; [1]
  CC50: 6.19 µM
SK-MEL-5
  TGI: 3.17 µM
SK-MEL-5; Homo sapiens
  GI50: 1.75 µM
SK-MEL-5; [1]
  CC50: 5.74 µM
IGROV1; 48 h
  TGI: 2.92 µM
IGROV1; Homo sapiens, IGROV-1, 48 h
  GI50: 1.46 µM
  LC50: 5.86 µM
SK-OV-3
  TGI: 27.5 µM
SK-OV-3; Homo sapiens
  GI50: 12.6 µM
  LC50 (50% net cell kill): 59.8 µM
A498
  TGI: 4.60 µM
A498; Homo sapiens
  GI50: 1.9 µM
  LC50: 13.1 µM
ACHN
  TGI: 2.80 µM
ACHN; Homo sapiens
  GI50: 1.47 µM
  LC50: 5.34 µM
CAKI-1
  TGI: 2.87 µM
CAKI-1; Homo sapiens
  GI50: 1.5 µM
  LC50 (lethal concentration, 50% net cell kill): 5.47 µM
MDA-MB-231/ATCC
  TGI: 2.53 µM
MDA-MB-231/ATCC; Homo sapiens
  GI50: 1.19 µM
  LC50 (concentration killing 50% of cells): 5.37 µM
HS 578T
  TGI: 5.64 µM
HS 578T; Homo sapiens
  GI50: 2.27 µM
HS 578T; [1]
  CC50: > 100 µM
T-47D
  GI50: 1.37 µM
T-47D; read-out: LC50 (the source's name)
  CC50: > 100 µM
